Source: patent US20170066795A1, “SOLID PRODRUG FORMS OF 2'-CHLORO-2'-METHYL URIDINE FOR HCV” (IDENIX PHARMACEUTICALS LLC, priority 2014, published 2017)
Where two headings read alike, the source gives them in different places.

Key:
[1] = tested on: HCV; assay: Example 3 Parts I and II: antiviral activity across genotypes; assay type: in vivo; conditions: HCV-infected subjects, 50-300 mg QD x 7 days
Source text: This part was a randomized, double-blind, placebo-controlled, parallel group study in treatment-naïve, Genotype 1 HCV-infected subjects. Thirty (30) subjects were randomized across the treatment arms specified below.
(§1) This part were a randomized, open-label, parallel group study in treatment-naïve, Genotype 2, 3, 4, 5 and 6 HCV-infected subjects. Thirty (30) subjects were randomized across the treatment arms specified below.
(§2) Dosing, sampling, and analyses for Parts I and II were made according to Tables A and B.

[2] = Example 4 Group A: plasma pharmacokinetics in healthy volunteers (LC/MS/MS); conditions: human, in vivo; for AUC(0-inf) / Cmax / half-life: mean ± SD; for AUC(0-inf): read-out: AUC∞ of Compound I; for Cmax: read-out: Cmax of Compound I; for half-life: read-out: t1/2 of Compound I (converted); for Tmax: median, read-out: Tmax of Compound I
Description: Six sequential cohorts of 8 health volunteers per cohort were randomized via a computer-generated randomization list in the ratio of 2:6. Two of the healthy volunteers (HV) received placebo and the remaining six received Compound I under fasted conditions at single ascending doses of 10, 25, 50, 150, or 300 mg, or multiple doses at 300 mg QD for 7 days (below, “Group A”).
(§3) Compound I was provided as size 0, white, hard hydroxypropyl methylcellulose (HPMC) capsules for oral administration at 5 mg, 25 mg, and 50 mg strengths. The same powder blend containing 33.3% weight/weight (w/w) Compound I, a diluent, and a disintegrant is used to fill the capsules for all dose strengths. Matching placebo capsules will also be provided. Storage conditions will be provided on the study drug container label.
For Groups A and B, dosing occurred between approximately 08:00 AM and 10:00 AM on each dosing day. Dosing was fasted for all subjects in Groups A and B. For fasted dosing, subjects observed a fasting period of approximately 10 hours prior to each dose and for an additional 4 hours post-dose.
Plasma samples were obtained up to 120 hours after dosing and the levels of Compound I and its Nucleoside metabolite were measured by using validated LC/MS/MS methodology. Plasma pharmacokinetic parameters were obtained by using non-compartmental analysis with parameters reported as mean±standard deviation (SD) except for Tmax where median (min-max) is shown.

[3] = tested on: genotype 2 or 3 HCV; assay: Example 3 Part II: Compound I QD x 7 days in treatment-naïve Genotype 2, 3, 4, 5 and 6 HCV-infected subjects, viral load (HCV RNA); assay type: in vivo; conditions: 300 mg/day for 7 days
Description: as §1, §2
as §3, with “25 mg” for “25 mg,”
Dosing occurred between approximately 08:00 AM and 10:00 AM on each dosing day. Water was permitted ad libitum except for 1 hour before and after dosing. Dosing was immediately followed by administration of 240 mL (8 oz.) of water. Meals and beverages served within 24 hours prior to and post dosing were xanthine-free and caffeine-free. Grapefruit and grapefruit juice were not allowed within 7 days before reporting to the clinic on Day −1 and through the end of the study.

[4] = 10 mg, 10 mg single dose, fasted
[5] = 25 mg, 25 mg single dose, fasted
[6] = 50 mg, 50 mg single dose, fasted
[7] = 150 mg, 150 mg single dose, fasted
[8] = 300 mg, 300 mg single dose, fasted

## CC(C)OC(=O)[C@@H](C)N[P@@](=O)(OC[C@H]1O[C@@H](n2ccc(=O)[nH]c2=O)[C@](C)(Cl)[C@@H]1O)Oc1ccccc1 [Compound I]
[1]
  antiviral activity across genotypes: potent pan-genotypic activity in a dose-dependent manner
[2]; [4]
  AUC(0-inf): 26 ± 7.6 ng·h/mL
  Cmax: 17.4 ± 6.64 ng/mL
  half-life: 0.87 ± 0.25 h
  Tmax: 0.8 h
[2]; [5]
  AUC(0-inf): 51.2 ± 12.8 ng·h/mL
  Cmax: 28.8 ± 13.4 ng/mL
  half-life: 0.91 ± 0.26 h
  Tmax: 1 h
[2]; [6]
  AUC(0-inf): 162 ng·h/mL
  Cmax: 82.4 ± 61.6 ng/mL
  half-life: 1.04 ± 0.34 h
  Tmax: 1 h
[2]; [7]
  AUC(0-inf): 1110 ± 690 ng·h/mL
  Cmax: 667 ± 324 ng/mL
  half-life: 1.16 ± 0.24 h
  Tmax: 1 h
[2]; 300 mg, 300 mg QD, D1, fasted
  AUC(0-inf): 2170 ± 660 ng·h/mL
  Cmax: 1290 ± 333 ng/mL
  half-life: 1.88 ± 0.72 h
  Tmax: 0.8 h
[2]; 300 mg, 300 mg QD, D7, fasted
  AUC(0-inf): 2200 ± 494 ng·h/mL
  Cmax: 1280 ± 238 ng/mL
  half-life: 2.76 ± 1.79 h
  Tmax: 0.5 h
[2]; [8]
  AUC(0-inf): 1680 ± 725 ng·h/mL
  Cmax: 924 ± 441 ng/mL
  half-life: 1.19 ± 0.34 h
  Tmax: 0.5 h
[3]
  response in genotype 2 versus genotype 3 HCV infection: similar
[3]; 10 genotype 2 or 3 HCV-infected patients
  mean maximal viral load reduction: 4.3 logs
